Source: patent US6924309B2 (Children, Youth and Women's Health Service Incorporated, priority 1999, dated 2005)
Converted amounts (≈) assume the structure as drawn. “Also recorded” adds a separate entry of the source. Where two headings read alike, the source gives them in different places. Each block holds one molecule with its values, some of them ahead of it.

What was measured:
[1] = Petri-dish thin film autoxidation of arachidonic acid with thia fatty acids and sulfides (HPLC)
Outline: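 Arachidonic acid mixed with each sulfur compound at different ratios, lauric acid as internal standard, cast as thin films on 80 mm glass Petri-dishes. Dishes kept under oxygen in a dark desiccator; residual compounds quantified after 1, 2, 3, 5 and 7 days by reverse-phase HPLC with refractive index detection.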

[2] = Reaction with tert-butyl hydroperoxide to the sulfoxide; type: physicochemical; details: CH2Cl2, RT, after 9 h
Excerpt: To further investigate the possible involvement of hydroperoxide-induced sulfoxide formation in the antioxidant behaviour of the γ-thia and β-thia fatty acids 18, 19, 106, 108, 109 and 112, compounds 108 and 109 (in a ratio of 1:1 in CH2Cl2) were allowed to react with tert-butyl hydroperoxide. [drawing 37]
The reaction was monitored by TLC and ^1H NMR analysis. […] The ^1H NMR spectrum of compound 114 contains two multiplets at δ2.88-3.07 and two doublets at δ3.63-3.86 corresponding to the methylene protons on the carbons adjacent to sulfur.

15-LO = target: T1, 15-LO (Glycine max, UniProt P08170); assay: Effect on 15-LO catalysed oxidation of arachidonic acid; type: biochemical, soybean
T1 construct: purchased Sigma Chemical Company
T1 sequence (P08170 1-839): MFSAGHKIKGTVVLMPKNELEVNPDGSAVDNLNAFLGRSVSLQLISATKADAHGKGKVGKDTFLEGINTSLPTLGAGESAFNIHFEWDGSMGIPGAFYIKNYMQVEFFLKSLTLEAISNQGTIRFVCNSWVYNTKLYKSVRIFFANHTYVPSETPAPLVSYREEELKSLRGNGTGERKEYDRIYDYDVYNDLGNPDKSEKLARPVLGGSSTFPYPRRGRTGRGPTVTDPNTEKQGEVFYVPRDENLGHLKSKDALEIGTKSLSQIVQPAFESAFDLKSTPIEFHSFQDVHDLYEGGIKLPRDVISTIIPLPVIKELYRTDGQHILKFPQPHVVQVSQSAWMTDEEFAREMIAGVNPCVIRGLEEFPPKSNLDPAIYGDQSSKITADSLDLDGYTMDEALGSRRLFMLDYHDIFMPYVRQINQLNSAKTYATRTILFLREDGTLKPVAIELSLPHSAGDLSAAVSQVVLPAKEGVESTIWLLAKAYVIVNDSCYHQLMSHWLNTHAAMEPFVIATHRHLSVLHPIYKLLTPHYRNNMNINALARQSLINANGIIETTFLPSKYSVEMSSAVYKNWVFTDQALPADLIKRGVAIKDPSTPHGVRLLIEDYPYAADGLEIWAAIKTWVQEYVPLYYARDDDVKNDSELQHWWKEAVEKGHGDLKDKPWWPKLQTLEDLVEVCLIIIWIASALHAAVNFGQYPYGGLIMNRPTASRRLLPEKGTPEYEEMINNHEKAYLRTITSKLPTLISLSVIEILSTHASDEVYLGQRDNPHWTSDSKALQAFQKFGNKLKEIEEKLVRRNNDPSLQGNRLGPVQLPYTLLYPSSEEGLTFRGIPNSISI

[3] = tested on: Plasmodium falciparum isolates 3D7, FC27, K+; assay: Radiometric (3H-hypoxanthine) assay on asexual blood stages of P. falciparum; type: cell-based; details: for EC50: Plasmodium falciparum, read-out: EC50 against P. falciparum
Experimental: Using the radiometric assay^(36), the effects of the Lx compounds were examined for antimalarial activity. The Plasmodium falciparum isolates used were 3D7, FC27, K^1 and K^+. These were maintained in human blood group O^+ erythrocytes essentially as described previously using RPM-1640 (HEPES modification) supplemented with 0.25% D-glucose, 0.2% Tess buffer (Sigma Chemical Co, Lt Louis, Mo.) and 10% heat inactivated (56° C., 20 min) human blood group AB serum. Cultures were maintained in tissue culture flasks (Corning, N.Y.) at 37° C. under an atmosphere of 1% 2, 5% CO2 in N2. P. falciparum cultures containing approximately 3.0:% parasitaemia were adjusted to 1×10^8 erythrocytes/ml. To 50 μl of the parasite-erythrocyte culture (5×10^6 erythrocytes) in wells of 96-well microdilution plates wvas added 50 μl of the designated concentration of fatty acid or equivalent amounts of solutions or media. The treated cultures were incubated at 37° C. for 4 h and then pulsed with 50 μl (2.5 μCi) of ^3H-hypoxanthine. After a further 18 h incubation the parasites-erythrocytes were harvested onto glass fibre filter papers using a cell harvester. The amount of radioactivity incorporated was measured in a β-counter. The results have been expressed as % inhibition of parasite growth i.e. the dpm in the fatty acid diluent−dpm in the fatty acid treated cultures/dpm in diluent×100.

Red blood cells = assay: Incorporation of Lx3 into normal red blood cells; type: cell-based; details: 200 μg Lx3, 37° C., 4 h
Experimental: Red blood cells or parasitised red blood cells (K+ strain, 9.25% parasitaenia) (5×10^8 cells) were incubated with 200 μg of Lx3 in 10 mls of HBSS at 37° C. for 4 h. The incubate was centrifuged (3,000 rpm for 10 min) and the medium aspirated. The cell pellet was washed 3 times with 5 ml of HBSS with centrifugation. Lipids were extracted from the cell pellet and neutral lipids, phospholipids and unesterffied Lx3 were resolved by thin-layer chromatography. The neutral lipid and phospholipid samples were transesterified to release any bound Lx3. The amount of Lx3 associated with the unesterifield, neutral lipid and phospholipid fractions was quantitated by gas-liquid chromatography using nonadecanoic acid (nonadecylic acid (19:0)) methyl ester (48 nmol) as a reference standard. For definitive identification of Lx3 and possible products (elongation, de-saturation, shorter-chain products), a combined gas-liquid chromatography-mass spectrometry (GC-MS) technique was employed. FIG. 6 is the GC-MS (expanded view) of Lx3 isolated from parasitised RBC. The mass spectrum of each peak unambiguously identifies 19:0 and Lx3 (19:3(n-6)-N02) respectively. […] No Lx3 was esterified in neutral lipids and phospholipids (Table 4). It is important to note that parasitised red blood cells took up approximately 6 times more Lx3 than non-parasitised cells. […]

[4] = tested on: parasitised red blood cells (K+ strain); assay: Incorporation of Lx3 into parasitised red blood cells; type: cell-based, P. falciparum
Experimental: Red blood cells or parasitised red blood cells (K+ strain, 9.25% parasitaenia) (5×10^8 cells) were incubated with 200 μg of Lx3 in 10 mls of HBSS at 37° C. for 4 h. The incubate was centrifuged (3,000 rpm for 10 min) and the medium aspirated. The cell pellet was washed 3 times with 5 ml of HBSS with centrifugation. Lipids were extracted from the cell pellet and neutral lipids, phospholipids and unesterffied Lx3 were resolved by thin-layer chromatography. The neutral lipid and phospholipid samples were transesterified to release any bound Lx3. The amount of Lx3 associated with the unesterifield, neutral lipid and phospholipid fractions was quantitated by gas-liquid chromatography using nonadecanoic acid (nonadecylic acid (19:0)) methyl ester (48 nmol) as a reference standard. For definitive identification of Lx3 and possible products (elongation, de-saturation, shorter-chain products), a combined gas-liquid chromatography-mass spectrometry (GC-MS) technique was employed. FIG. 6 is the GC-MS (expanded view) of Lx3 isolated from parasitised RBC. The mass spectrum of each peak unambiguously identifies 19:0 and Lx3 (19:3(n-6)-N02) respectively. […] No Lx3 was esterified in neutral lipids and phospholipids (Table 4). It is important to note that parasitised red blood cells took up approximately 6 times more Lx3 than non-parasitised cells. […] The lack of derivatisation or incorporation of Lx3 into neutral lipids and phospholipids is almost certainly due to Lx3 not having a carboxylic acid group which is mandatory for the conversion of a fatty acid to its coenzyme A ester.

P. berghei = type: in vivo; design: Parasitaemia: unit not given here; details: for Parasitaemia: 40 mg/kg from one day prior to infection, twice a day
Experimental: In other sets of experiments, the effects of Lx3 were examined in vivo in mice infected with P. berghei. FIG. 10 illustrates the effect of Lx3 on the level of P. berghei parasitaemia in the mice. Results are the means ±SEM of five mice per group. Mice were infected intraperitoneally with the parasite and when an appropriate parasitaemia was reached they were treated intravenously with 40 mg/kg weight of MP3.
Mice were treated at one day prior to infection with 2 doses of 40 mg/kg body weight and then another dose 60 min prior to infection (0 time) on the following day. The parasitaemia was checked 4 h later and at the times stipulated in the Table. The animals were treated with either DPC or Lx3 twice a day 30 min after taking a parasitaemia reading. The results are presented as mean ±SEM of parasitaelnia of 4 mice per group.

TNF-α = TNF-α production by human peripheral blood leukocytes; type: cell-based; details: Leukocyte, stimulus S. aureus, read-out: % Inhibition (compared to control) of TNF-α
Experimental: (§1) The effects of the nitroalkanes (Lx1-Lx5) on lymphocyte activation and cytokine production were examined. The ability of the PUFA to suppress mitogen-induced proliferation in response to PHA and S. aureus, and to inhibit cytokine production (TNFα and IFNγ), was assessed.

IFN-γ = IFN-γ production by human peripheral blood leukocytes; type: cell-based; details: Leukocyte, stimulus PHA, read-out: % Inhibition (compared to control) of IFN-γ
Experimental: as §1

Paw oedema = details: in vivo
P. falciparum = details: 20 μg/ml
Experimental: Parasites were treated with 20 μg/ml of compound. Results are means of triplicate assays of one experiment and are consistent with that found in three experiments.

[5] = ratio arachidonic acid:compound 1:1, 1 day
[6] = ratio arachidonic acid:compound 1:1, 2 days
[7] = ratio arachidonic acid:compound 1:1, 3 days
[8] = ratio arachidonic acid:compound 1:1, 5 days

Conversion to the sulfoxide by tert-butyl hydroperoxide [2]: completely converted
SMILES: CCCCCCCCCCCCCCSCCC(=O)O [Compound 108]
Antioxidant effect on autoxidation of arachidonic acid (in words) [1]: effective antioxidants
Arachidonic acid (%) recovered following autoxidation in the presence of the compound [1, 5]: 98%
Compound (%) recovered following autoxidation with arachidonic acid [1, 5]: 99%
Arachidonic acid (%) recovered following autoxidation in the presence of the compound [1, 6]: 93%
Compound (%) recovered following autoxidation with arachidonic acid [1, 6]: 91%
Arachidonic acid (%) recovered following autoxidation in the presence of the compound [1, 7]: 79%
Compound (%) recovered following autoxidation with arachidonic acid [1, 7]: 86%
Arachidonic acid (%) recovered following autoxidation in the presence of the compound [1, 8]: 30%
Compound (%) recovered following autoxidation with arachidonic acid [1, 8]: 44%
Compound (%) recovered following autoxidation with arachidonic acid ([1]; ratio arachidonic acid:compound 1:1, 7 days): 37%

Effect on 15-LO catalysed oxidation of AA (15-LO): Nil
EC50 ([3]; 3D7, isolate FC27): 6 µg/mL (≈ 20.4 µM)
EC50 ([3]; 3D7, isolate K+): 3 µg/mL (≈ 10.2 µM)
EC50 ([3]; isolate 3D7): 2 µg/mL (≈ 6.82 µM)
Recovered cellular Lx3, unesterified Lx3 (Red blood cells): 2.1 ± 0.2 % of total added
Recovered cellular Lx3, unesterified Lx3 ([4]; parasitised red blood cells, 200 μg Lx3, 37° C., 4 h): 12.9 ± 0.4 % of total added
SMILES: CCCCC/C=C\C/C=C\C/C=C\CCCCC[N+](=O)[O-] [Lx3, (z,z,z)-1-Nitro-6,9,12-octadecatriene]
Antimalarial activity (in words) [3]: very active
Activity against a chloroquine resistant isolate ([3]; chloroquine resistant isolate): active
Reduction of antimalarial activity by human serum ([3]; compound 20 μg/ml, presence of human serum): did not affect the activity; also recorded: not inhibited by serum
Antimalarial activity on P. falciparum 3D7 (FIG. 1, in words) ([3]; isolate 3D7): greatest activity
Form of the compound taken up by the cells ([4]; GC-MS): remained exclusively in the unesterified form
Elongation, chain-shortening or de-saturation products detected ([4]; either cell population, GC-MS): No elongation, chain-shortening or de-saturation products
Tolerability in mice (P. berghei; intravenous 40 mg/kg): tolerated Lx3 quite well
Parasitaemia (P. berghei; mice, 4 h after infection): 0.18 ± 0.05
Parasitaemia (P. berghei; mice, 22 h after infection): 0.30 ± 0.10
Parasitaemia (P. berghei; mice, 28 h after infection): 0.14 ± 0.05
Parasitaemia (P. berghei; mice, 46 h after infection): 0.40 ± 0.14
Change in circulating parasites (parasitaemia) (P. berghei; mice, single intravenous dose 40 mg/kg, within 5 h after injection): marked drop in circulating parasites
inhibition at 20 µM (TNF-α): 48.2%
inhibition at 20 µM (IFN-γ): 37.6%
Effect in paw oedema (Paw oedema): either inflammatory or anti-inflammatory
Morphology of parasites in treated cultures (P. falciparum): degenerate mature rings, trophozoites and shizonts
